Assay results published in ChEMBL document CHEMBL1134412, “(4-Piperidin-1-yl)phenyl amides: potent and selective human beta(3) agonists” (J Med Chem, 2001).

Experiments:
[1] = target: T1, Beta-2 adrenergic receptor (Homo sapiens, UniProt P07550)
Target sequence in this assay (P07550 whole entry): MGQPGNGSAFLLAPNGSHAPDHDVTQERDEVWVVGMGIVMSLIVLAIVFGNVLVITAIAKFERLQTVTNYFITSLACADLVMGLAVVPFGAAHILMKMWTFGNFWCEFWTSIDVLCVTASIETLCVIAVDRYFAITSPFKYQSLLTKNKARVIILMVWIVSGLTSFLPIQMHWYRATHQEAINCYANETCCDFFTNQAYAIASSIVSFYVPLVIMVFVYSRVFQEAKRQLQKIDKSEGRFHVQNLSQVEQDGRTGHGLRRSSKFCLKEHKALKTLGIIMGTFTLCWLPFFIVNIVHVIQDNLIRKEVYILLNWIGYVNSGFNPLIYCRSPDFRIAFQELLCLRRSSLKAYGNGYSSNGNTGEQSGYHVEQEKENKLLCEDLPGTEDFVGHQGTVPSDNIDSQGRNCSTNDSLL
Description: Inhibition of I-iodocyanopindolol binding to human beta 2 adrenergic receptors

[2] = target: T2, Beta-3 adrenergic receptor (Homo sapiens, UniProt P13945); assay: Compound was tested for increased thermogenesis using beta-3 human transgenic mice
Target sequence in this assay (P13945 whole entry, looked up): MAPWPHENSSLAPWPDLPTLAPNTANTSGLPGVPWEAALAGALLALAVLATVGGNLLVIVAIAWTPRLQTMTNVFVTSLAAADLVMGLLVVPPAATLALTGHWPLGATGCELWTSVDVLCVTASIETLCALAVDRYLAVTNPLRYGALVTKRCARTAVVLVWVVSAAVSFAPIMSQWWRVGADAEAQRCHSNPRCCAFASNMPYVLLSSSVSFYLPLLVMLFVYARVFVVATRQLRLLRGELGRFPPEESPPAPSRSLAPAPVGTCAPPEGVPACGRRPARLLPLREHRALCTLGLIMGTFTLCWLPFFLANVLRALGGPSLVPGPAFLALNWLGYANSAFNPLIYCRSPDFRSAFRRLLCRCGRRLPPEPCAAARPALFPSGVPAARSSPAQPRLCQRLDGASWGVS

[3] = target: T3, Beta-1 adrenergic receptor (Homo sapiens, UniProt P08588); assay: Inhibition of I-iodocyanopindolol binding to human beta 1 adrenergic receptors
Target sequence in this assay (P08588 whole entry): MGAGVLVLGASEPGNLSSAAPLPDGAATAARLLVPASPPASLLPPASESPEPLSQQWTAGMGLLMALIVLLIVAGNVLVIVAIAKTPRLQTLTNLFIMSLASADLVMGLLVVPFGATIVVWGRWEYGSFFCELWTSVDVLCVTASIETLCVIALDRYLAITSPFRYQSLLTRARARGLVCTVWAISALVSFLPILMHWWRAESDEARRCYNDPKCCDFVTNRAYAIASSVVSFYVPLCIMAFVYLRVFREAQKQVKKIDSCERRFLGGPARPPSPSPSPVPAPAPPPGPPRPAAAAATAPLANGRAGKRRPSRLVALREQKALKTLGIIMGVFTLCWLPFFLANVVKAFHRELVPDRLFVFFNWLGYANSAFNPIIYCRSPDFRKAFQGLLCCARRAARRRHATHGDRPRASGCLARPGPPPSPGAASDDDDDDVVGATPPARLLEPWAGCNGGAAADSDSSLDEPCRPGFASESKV

[4] = target: T3, Beta-1 adrenergic receptor; assay: In vitro activity to increase cAMP levels in Chinese hamster ovary (CHO) cells expressing the cloned human beta 1 Adrenergic receptor; format: cell-based
Target sequence in this assay (P08588 whole entry): as above

[5] = target: T1, Beta-2 adrenergic receptor; assay: Increased cAMP levels of Chinese hamster ovary (CHO) cells expressing human beta 2 adrenergic receptors; format: functional, cell-based
Target sequence in this assay (P07550 whole entry): as the sequence (P07550 whole entry) above

[6] = target: T2, Beta-3 adrenergic receptor; assay: In vitro increase in cAMP levels in Chinese hamster ovary cells expressing the human cloned beta 3 Adrenergic receptor.; format: functional, cell-based
Target sequence in this assay (P13945 whole entry): as the sequence (P13945 whole entry, looked up) above

[7] = target: T3, Beta-1 adrenergic receptor; assay: Increased cAMP levels of Chinese hamster ovary (CHO) cells expressing human beta 1 Adrenergic receptor; format: functional, cell-based
Target sequence in this assay (P08588 whole entry): as the sequence (P08588 whole entry) above

[8] = target: T1, Beta-2 adrenergic receptor; assay: Intrinsic activity to increase cAMP levels in Chinese hamster ovary (CHO) cells expressing the cloned human beta 2 adrenergic receptors; format: cell-based
Target sequence in this assay (P07550 whole entry, looked up): as the sequence (P07550 whole entry) above

[9] = target: T2, Beta-3 adrenergic receptor; assay: Intrinsic activity to increase cAMP levels in Chinese hamster ovary (CHO) cells expressing the cloned human beta 3 Adrenergic receptor; format: cell-based
Target sequence in this assay (P13945 whole entry, looked up): as the sequence (P13945 whole entry, looked up) above

[10] = target: T3, Beta-1 adrenergic receptor; assay: Intrinsic activity to increase cAMP levels in Chinese hamster ovary (CHO) cells expressing the cloned human beta 1 Adrenergic receptor; format: cell-based
Target sequence in this assay (P08588 whole entry, looked up): as the sequence (P08588 whole entry) above

Compound | EC50 [4] [nM] | EC50 [5] [nM] | EC50 [6] [nM] | EC50 [7] [nM] | IA [8] | IA [9] | IA [10] | Ki [1] [nM] | Thermogenesis [2] [%] | Ki [3] [nM]
CCCCCCNC(=O)Nc1ccc(S(=O)(=O)Nc2ccc(CCNC[C@H](O)COc3ccc(O)cc3)cc2)cc1 [L-755507] | 330 | 20 | – | – | – | – | – | 160 | 28 | 570
CC(C)C[C@H](NC(=O)c1ccc(N2CCC(NC[C@H](O)c3ccc(O)c(NS(C)(=O)=O)c3)CC2)cc1)C(=O)O | – | 80 | 8 | 60 | – | – | – | 3400 | 53 | > 100000
CC(C)[C@H](NC(=O)c1ccc(N2CCC(NC[C@H](O)c3ccc(O)c(NS(C)(=O)=O)c3)CC2)cc1)C(=O)O | – | > 10000 | 26 | > 10000 | – | – | – | 3600 | – | > 100000
CCOC(=O)CNC(=O)c1ccc(N2CCC(NC[C@H](O)c3ccc(O)c(NS(C)(=O)=O)c3)CC2)cc1 | – | 3200 | 15 | 4500 | – | – | – | – | – | –
CCCCN(C(=O)CC(=O)O)c1ccc(N2CCC(NC[C@H](O)c3ccc(O)c(NS(C)(=O)=O)c3)CC2)cc1 | – | 60 | 9 | 40 | – | – | – | > 100000 | 35 | > 100000
CS(=O)(=O)Nc1cc([C@@H](O)CNC2CCN(c3ccc(C(=O)N[C@@H](CCC(=O)O)C(=O)O)cc3)CC2)ccc1O | – | – | 92 | – | – | – | – | – | – | –
CS(=O)(=O)Nc1cc([C@@H](O)CNC2CCN(c3ccc(C(=O)NCCC(=O)O)cc3)CC2)ccc1O | – | – | 260 | – | – | – | – | – | – | –
CS(=O)(=O)Nc1cc([C@@H](O)CNC2CCN(c3ccc(C(=O)N[C@@H](Cc4ccccc4)C(=O)O)cc3)CC2)ccc1O | – | 1500 | – | 43700 | – | – | – | 480 | – | > 100000
CS(=O)(=O)Nc1cc([C@@H](O)CNC2CCN(c3ccc(C(=O)NCC(=O)O)cc3)CC2)ccc1O | – | 40 | 60 | 50 | – | – | – | 11600 | 51 | > 100000
CS(=O)(=O)Nc1cc([C@@H](O)CNC2CCN(c3ccc(C(=O)N4CCC[C@H]4C(=O)O)cc3)CC2)ccc1O | – | 20 | – | – | – | – | – | – | – | –
CS(=O)(=O)Nc1cc([C@@H](O)CNC2CCN(c3ccc(C(N)=O)cc3)CC2)ccc1O | – | 270 | 20 | 1200 | – | – | – | – | – | –

The next lines start with results.

EC50 [4] [nM] | EC50 [5] [nM] | EC50 [6] [nM] | EC50 [7] [nM] | IA [8] | IA [9] | IA [10] | Compound | Ki [1] [nM] | Thermogenesis [2] [%] | Ki [3] [nM]
– | – | 270 | – | – | – | – | CS(=O)(=O)Nc1cc([C@@H](O)CNC2CCN(c3ccc(CC(=O)O)cc3)CC2)ccc1O | – | – | –
– | 10500 | 36 | > 1000 | – | – | – | CCCCN(CC(=O)O)C(=O)c1ccc(N2CCC(NC[C@H](O)c3ccc(O)c(NS(C)(=O)=O)c3)CC2)cc1 | – | – | –
– | 900 | 130 | 100 | – | – | – | CS(=O)(=O)Nc1cc([C@@H](O)CNC2CCN(c3ccc(NC(=O)CC(=O)O)cc3)CC2)ccc1O | – | – | –
2000 | 5000 | 4 | – | 0.45 | 1 | 0.51 | CCCCN(c1ccc(N2CCC(NC[C@H](O)c3ccc(O)c(NS(C)(=O)=O)c3)CC2)cc1)S(=O)(=O)CC(=O)O | – | – | –
– | 6000 | 66 | 1600 | – | – | – | CS(=O)(=O)Nc1cc([C@@H](O)CNC2CCN(c3ccc(COCC(=O)O)cc3)CC2)ccc1O | – | – | –
– | 4700 | 39 | 9800 | – | – | – | CS(=O)(=O)Nc1cc([C@@H](O)CNC2CCN(c3ccc(CCC(=O)O)cc3)CC2)ccc1O | – | – | –
48700 | > 50000 | 220 | – | – | – | – | CS(=O)(=O)Nc1cc([C@@H](O)CNC2CCN(c3ccc(C(=O)O)cc3)CC2)ccc1O | – | – | –
